According to US9980943B2, “Methods of treating muscular dystrophy” (BOARD OF REGENTS OF THE NEVADA SYSTEM OF HIGHER EDUCATION, …, priority 2013, dated 2018):

Legend:
Assay type in all cases: cell-based, mouse
[1] = test system: β-galactosidase in CMV-LacZ C2C12 myoblasts; experiment: CMV-LacZ secondary screen in C2C12 myoblasts (β-Gal stabilizing assay); conditions: for CMV-LACZ in Myoblasts, value relative to DMSO: SU9516 analogs, C2C12 CMV-LacZ, N=2; for CMV-LACZ in Myoblasts (β-galactosidase activity relative to DMSO): CMV-LacZ C2C12 myoblasts
Summary of the method: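 C2C12 myoblasts stably carrying a linearized CMV-driven LacZ construct, clone chosen by β-gal level in the myoblast FDG assay. Compounds tested in 96-well dose-response at 0.5, 1, 5, 10, 20 and 40 μM, N=2 replicates per point, to detect β-gal stabilization.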

[2] = test system: β-galactosidase in CMV-LacZ C2C12 myotubes; experiment: CMV-LacZ secondary screen in C2C12 myotubes (β-Gal stabilizing assay); conditions: for CMV-LACZ in Myotubes, value relative to DMSO: SU9516 analogs, C2C12 CMV-LacZ, N=2; for CMV-LACZ in Myotubes, signal relative to DMSO: C2C12 CMV-LacZ myotubes, fold relative to DMSO
Summary of the method: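 Stable CMV-LacZ C2C12 clone; six-point curve 0.5–40 μM; duplicates.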

[3] = test system: α7 integrin (LacZ reporter in α7βgal+/− myoblasts); experiment: Myoblast α7+/LacZ integrin FDG assay (Burkin assay in myoblasts, 96-well); conditions: for Burkin Assay in Myoblasts, value relative to DMSO: SU9516 analogs, N=3-6; for Burkin Assay in Myoblasts, value relative to DMSO / Burkin Assay in Myoblasts, signal relative to DMSO: 96-well; for Burkin Assay in Myoblasts, signal relative to DMSO: α7+/LacZ myoblasts
[4] = test system: α7 integrin (LacZ reporter in α7+/LacZ myotubes); experiment: Myotube α7 integrin FDG assay (Burkin assay in myotubes, 96-well); conditions: for Burkin Assay in Myotubes, value relative to DMSO: SU9516 analogs, 96-well, N=3-6
[5] = Mus musculus, Myoblast, 48 h, read-out: Burkin Assay in Myoblasts, value relative to DMSO

CCO/C(C)=C1\C(=O)Nc2ccccc21 [MLS000554109-01]
CMV-LACZ in Myoblasts, value relative to DMSO ([1]; 0.5 uM): 1.1083
CMV-LACZ in Myoblasts, value relative to DMSO ([1]; 1 uM): 1.1863
CMV-LACZ in Myoblasts, value relative to DMSO ([1]; 5 uM): 0.9003
CMV-LACZ in Myoblasts, value relative to DMSO ([1]; 10 uM): 0.9457
CMV-LACZ in Myoblasts, value relative to DMSO ([1]; 20 uM): 0.9853
CMV-LACZ in Myoblasts, value relative to DMSO ([1]; 40 uM): 0.9650
CMV-LACZ in Myotubes, value relative to DMSO ([2]; 0.5 uM): 1.2682
CMV-LACZ in Myotubes, value relative to DMSO ([2]; 1 uM): 0.9491
CMV-LACZ in Myotubes, value relative to DMSO ([2]; 5 uM): 1.1559
CMV-LACZ in Myotubes, value relative to DMSO ([2]; 10 uM): 1.1355
CMV-LACZ in Myotubes, value relative to DMSO ([2]; 20 uM): 0.9100
CMV-LACZ in Myotubes, value relative to DMSO ([2]; 40 uM): 0.9950
Burkin Assay in Myoblasts, value relative to DMSO ([3]; 0.5 uM): 0.9929
Burkin Assay in Myoblasts, value relative to DMSO ([3]; 1 uM): 1.049
Burkin Assay in Myoblasts, value relative to DMSO ([3]; 5 uM): 1.067
Burkin Assay in Myoblasts, value relative to DMSO ([3]; 10 uM): 1.095
Burkin Assay in Myoblasts, value relative to DMSO ([3]; 20 uM): 0.9611
Burkin Assay in Myoblasts, value relative to DMSO ([3]; 40 uM): 0.8937
Burkin Assay in Myotubes, value relative to DMSO ([4]; 0.5 uM): 0.8839
Burkin Assay in Myotubes, value relative to DMSO ([4]; 1 uM): 1.054
Burkin Assay in Myotubes, value relative to DMSO ([4]; 5 uM): 0.9611
Burkin Assay in Myotubes, value relative to DMSO ([4]; 10 uM): 0.9874
Burkin Assay in Myotubes, value relative to DMSO ([4]; 20 uM): 0.8426
Burkin Assay in Myotubes, value relative to DMSO ([4]; 40 uM): 1.048

CCN(CC)C(=O)c1sc2nc(-c3ccc(OC)cc3)cn2c1C [MLS000089464-01]
CMV-LACZ in Myoblasts (β-galactosidase activity relative to DMSO) ([1]; 0.5 uM): 0.9117
CMV-LACZ in Myoblasts (β-galactosidase activity relative to DMSO) ([1]; 1 uM): 0.9160
CMV-LACZ in Myoblasts (β-galactosidase activity relative to DMSO) ([1]; 5 uM): 0.9372
CMV-LACZ in Myoblasts (β-galactosidase activity relative to DMSO) ([1]; 10 uM): 1.1969
CMV-LACZ in Myoblasts (β-galactosidase activity relative to DMSO) ([1]; 20 uM): 0.7500
CMV-LACZ in Myoblasts (β-galactosidase activity relative to DMSO) ([1]; 40 uM): 0.5274
CMV-LACZ in Myotubes, signal relative to DMSO ([2]; 0.5 uM): 0.9716
CMV-LACZ in Myotubes, signal relative to DMSO ([2]; 1 uM): 1.3716
CMV-LACZ in Myotubes, signal relative to DMSO ([2]; 5 uM): 0.9400
CMV-LACZ in Myotubes, signal relative to DMSO ([2]; 10 uM): 0.9529
CMV-LACZ in Myotubes, signal relative to DMSO ([2]; 20 uM): 1.3067
CMV-LACZ in Myotubes, signal relative to DMSO ([2]; 40 uM): 1.0178
Burkin Assay in Myoblasts, signal relative to DMSO ([3]; 0.5 uM): 0.9965
Burkin Assay in Myoblasts, signal relative to DMSO ([3]; 1 uM): 0.9802
Burkin Assay in Myoblasts, signal relative to DMSO ([3]; 5 uM): 0.934
Burkin Assay in Myoblasts, signal relative to DMSO ([3]; 10 uM): 0.7825
Burkin Assay in Myoblasts, signal relative to DMSO ([3]; 20 uM): 0.5631
Burkin Assay in Myoblasts, signal relative to DMSO ([3]; 40 uM): 0.3911
Burkin Assay in Myotubes, α7 integrin LacZ reporter signal relative to DMSO ([4]; 0.5 uM): 1.063
Burkin Assay in Myotubes, α7 integrin LacZ reporter signal relative to DMSO ([4]; 1 uM): 1.029
Burkin Assay in Myotubes, α7 integrin LacZ reporter signal relative to DMSO ([4]; 5 uM): 1.128
Burkin Assay in Myotubes, α7 integrin LacZ reporter signal relative to DMSO ([4]; 10 uM): 0.9917
Burkin Assay in Myotubes, α7 integrin LacZ reporter signal relative to DMSO ([4]; 20 uM): 0.9545
Burkin Assay in Myotubes, α7 integrin LacZ reporter signal relative to DMSO ([4]; 40 uM): 0.8373

CN1C(=O)N(CC(=O)N2CCN(S(=O)(=O)c3ccc(Cl)s3)CC2)C(=O)C12CCCCC2 [MLS002162890-01]
CMV-LACZ in Myoblasts (β-galactosidase activity relative to DMSO) ([1]; 0.5 uM): 0.8392
CMV-LACZ in Myoblasts (β-galactosidase activity relative to DMSO) ([1]; 1 uM): 0.8713
CMV-LACZ in Myoblasts (β-galactosidase activity relative to DMSO) ([1]; 5 uM): 0.9701
CMV-LACZ in Myoblasts (β-galactosidase activity relative to DMSO) ([1]; 10 uM): 0.9939
CMV-LACZ in Myoblasts (β-galactosidase activity relative to DMSO) ([1]; 20 uM): 0.7603
CMV-LACZ in Myoblasts (β-galactosidase activity relative to DMSO) ([1]; 40 uM): 0.9507
CMV-LACZ in Myotubes, signal relative to DMSO ([2]; 0.5 uM): 1.0682
CMV-LACZ in Myotubes, signal relative to DMSO ([2]; 1 uM): 1.0191
CMV-LACZ in Myotubes, signal relative to DMSO ([2]; 5 uM): 1.1237
CMV-LACZ in Myotubes, signal relative to DMSO ([2]; 10 uM): 1.0530
CMV-LACZ in Myotubes, signal relative to DMSO ([2]; 20 uM): 1.0140
CMV-LACZ in Myotubes, signal relative to DMSO ([2]; 40 uM): 1.0170
Burkin Assay in Myoblasts, signal relative to DMSO ([3]; 0.5 uM): 1.107
Burkin Assay in Myoblasts, signal relative to DMSO ([3]; 1 uM): 1.034
Burkin Assay in Myoblasts, signal relative to DMSO ([3]; 5 uM): 1.1338
Burkin Assay in Myoblasts, signal relative to DMSO ([3]; 10 uM): 1.261
Burkin Assay in Myoblasts, signal relative to DMSO ([3]; 20 uM): 0.694
Burkin Assay in Myoblasts, signal relative to DMSO ([3]; 40 uM): 0.4924
Burkin Assay in Myotubes, α7 integrin LacZ reporter signal relative to DMSO ([4]; 0.5 uM): 1.051
Burkin Assay in Myotubes, α7 integrin LacZ reporter signal relative to DMSO ([4]; 1 uM): 1.185
Burkin Assay in Myotubes, α7 integrin LacZ reporter signal relative to DMSO ([4]; 5 uM): 0.9351
Burkin Assay in Myotubes, α7 integrin LacZ reporter signal relative to DMSO ([4]; 10 uM): 1.1501
Burkin Assay in Myotubes, α7 integrin LacZ reporter signal relative to DMSO ([4]; 20 uM): 0.7452
Burkin Assay in Myotubes, α7 integrin LacZ reporter signal relative to DMSO ([4]; 40 uM): 0.803

O=C(O)c1csc(-c2cccs2)n1 [MLS000760876-01]
CMV-LACZ in Myoblasts (β-galactosidase activity relative to DMSO) ([1]; 0.5 uM): 0.9069
CMV-LACZ in Myoblasts (β-galactosidase activity relative to DMSO) ([1]; 1 uM): 1.0546
CMV-LACZ in Myoblasts (β-galactosidase activity relative to DMSO) ([1]; 5 uM): 0.8293
CMV-LACZ in Myoblasts (β-galactosidase activity relative to DMSO) ([1]; 10 uM): 0.8973
CMV-LACZ in Myoblasts (β-galactosidase activity relative to DMSO) ([1]; 20 uM): 0.9396
CMV-LACZ in Myoblasts (β-galactosidase activity relative to DMSO) ([1]; 40 uM): 0.8504
CMV-LACZ in Myotubes, signal relative to DMSO ([2]; 0.5 uM): 1.0248
CMV-LACZ in Myotubes, signal relative to DMSO ([2]; 1 uM): 1.1010
CMV-LACZ in Myotubes, signal relative to DMSO ([2]; 5 uM): 1.1074
CMV-LACZ in Myotubes, signal relative to DMSO ([2]; 10 uM): 0.9789
CMV-LACZ in Myotubes, signal relative to DMSO ([2]; 20 uM): 0.9482
CMV-LACZ in Myotubes, signal relative to DMSO ([2]; 40 uM): 1.2565
Burkin Assay in Myoblasts, signal relative to DMSO ([3]; 0.5 uM): 1.0287
Burkin Assay in Myoblasts, signal relative to DMSO ([3]; 1 uM): 0.9856
Burkin Assay in Myoblasts, signal relative to DMSO ([3]; 5 uM): 1.812
Burkin Assay in Myoblasts, signal relative to DMSO ([3]; 10 uM): 0.9113
Burkin Assay in Myoblasts, signal relative to DMSO ([3]; 20 uM): 1.102
Burkin Assay in Myoblasts, signal relative to DMSO ([3]; 40 uM): 0.9504
Burkin Assay in Myotubes, α7 integrin LacZ reporter signal relative to DMSO ([4]; 0.5 uM): 1.2427
Burkin Assay in Myotubes, α7 integrin LacZ reporter signal relative to DMSO ([4]; 1 uM): 1.256
Burkin Assay in Myotubes, α7 integrin LacZ reporter signal relative to DMSO ([4]; 5 uM): 1.249
Burkin Assay in Myotubes, α7 integrin LacZ reporter signal relative to DMSO ([4]; 10 uM): 0.9755
Burkin Assay in Myotubes, α7 integrin LacZ reporter signal relative to DMSO ([4]; 20 uM): 0.8634
Burkin Assay in Myotubes, α7 integrin LacZ reporter signal relative to DMSO ([4]; 40 uM): 0.8993

CCc1nc(/C=C2\C(=O)Nc3ccccc32)c[nH]1 [MLS000834755-01]
CMV-LACZ in Myoblasts, value relative to DMSO ([1]; 0.5 uM): 1.0317
CMV-LACZ in Myoblasts, value relative to DMSO ([1]; 1 uM): 1.0400
CMV-LACZ in Myoblasts, value relative to DMSO ([1]; 5 uM): 0.9591
CMV-LACZ in Myoblasts, value relative to DMSO ([1]; 10 uM): 0.9834
CMV-LACZ in Myoblasts, value relative to DMSO ([1]; 20 uM): 0.9007
CMV-LACZ in Myoblasts, value relative to DMSO ([1]; 40 uM): 0.9133
CMV-LACZ in Myotubes, value relative to DMSO ([2]; 0.5 uM): 0.5547
CMV-LACZ in Myotubes, value relative to DMSO ([2]; 1 uM): 1.2863
CMV-LACZ in Myotubes, value relative to DMSO ([2]; 5 uM): 1.0514
CMV-LACZ in Myotubes, value relative to DMSO ([2]; 10 uM): 1.1048
CMV-LACZ in Myotubes, value relative to DMSO ([2]; 20 uM): 1.2989
CMV-LACZ in Myotubes, value relative to DMSO ([2]; 40 uM): 0.8789
fold induction at 0.5 µM [3, 5]: 1.27
fold induction at 1 µM [3, 5]: 1.08
fold induction at 5 µM [3, 5]: 1.08
fold induction at 10 µM [3, 5]: 1.16
fold induction at 20 µM [3, 5]: 1.19
fold induction at 40 µM [3, 5]: 0.796
Burkin Assay in Myotubes, value relative to DMSO ([4]; 0.5 uM): 1.263
Burkin Assay in Myotubes, value relative to DMSO ([4]; 1 uM): 1.232
Burkin Assay in Myotubes, value relative to DMSO ([4]; 5 uM): 1.003
Burkin Assay in Myotubes, value relative to DMSO ([4]; 10 uM): 0.9868
Burkin Assay in Myotubes, value relative to DMSO ([4]; 20 uM): 0.9687
Burkin Assay in Myotubes, value relative to DMSO ([4]; 40 uM): 0.816
